From US20060039931A1, “Stable cream preparations of phenyl-pyridone compounds for topical application” (MEPHA AG, priority 2002, published 2006)

Assay: Experiments on use of pyridone compounds in emulsions
Assay type: physicochemical
Excerpt: When an emulsion “breaks”, the oily and aqueous phases separate, leading to unwanted coalescence, i.e. a kind of confluence or coagulation of the constituents. This often results in a change in pH and may even cause the active ingredient to crystallize out. This disadvantageous property of pirfenidone is not discussed in said patents and patent applications and no teaching is offered to remedy the problem. Creams are merely cited as a possible topical form of application.

With `Cc1ccc(=O)n(-c2ccccc2)c1` [pirfenidone, 5-methyl-1-phenyl-2-(1H)-pyridone] the Behaviour in emulsions was “behave as emulsion breakers”.
